The values that follow come from US9131690B2, “Macrocyclic picolinamides as fungicides” (Dow AgroSciences LLC, priority 2012, dated 2015).

In data set [1] the test system is Puccinia triticina. Synonym: Puccinia recondite f. sp. tritici. The data set can be described thus: Fungicidal activity: Wheat Brown Rust (PUCCRT), wheat plants variety Yuma. The settings on record: for pest or weed control at 100 ppm: Puccinia triticina; for PUCCRT 3DC Disease Control: 100 ppm. Also noted: key to PUCCRT 3DC Disease Control: A: 50-100; B: More than 0-Less than 50; C: Not Tested; D: No activity noticed in this bioassay. The class given is in vivo. In outline:
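Yuma wheat seedlings at first-leaf stage were inoculated with P. triticina spore suspension before or after fungicide treatment. Plants were held overnight at 100% relative humidity, then kept in a 24 C greenhouse for disease development.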

The subject of data set [2] is Mycosphaerella graminicola; Anamorph: Septoria tritici. Briefly: Fungicidal activity: Leaf Blotch of Wheat (SEPTTR), wheat plants variety Yuma. The data set is classed as in vivo. The settings on record: for SEPTTR 3DC Disease Control: 100 ppm; for pest or weed control at 100 ppm: Zymoseptoria tritici. Further details: key to SEPTTR 3DC Disease Control: A: 50-100; B: More than 0-Less than 50; C: Not Tested; D: No activity noticed in this bioassay. In outline: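 Greenhouse wheat seedlings at first-leaf stage, 7-10 per pot, inoculated with aqueous Septoria tritici spore suspension before or after fungicide treatment. Kept at 100% relative humidity (1 day dark dew chamber, then 2-3 days lighted), then greenhouse at 20° C. for disease development.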

The mark [3] stands for this setting: 24 h, 1 Day Protectant, read-out: PUCCRT 1DP Disease Control.
The mark [4] stands for this setting: 72 h, 3 Day Curative, read-out: PUCCRT 3DC Disease Control.
Setting [5] is: 24 h, 1 Day Protectant, read-out: SEPTTR 1DP Disease Control.
Setting [6] is: 72 h, 3 Day Curative, read-out: SEPTTR 3DC Disease Control.

Where two headings read alike, the source gives them in different places.

Consider `COc1ccnc(C(=O)N[C@H]2COC(=O)[C@H](C)[C@@H](OC(=O)C(C)C)[C@H](C)OC2=O)c1O` [Compound 46, (3S,6S,7R,8R)-3-(3-hydroxy-4-methoxypicolinamido)-6,8-dimethyl-4,9-dioxo-1,5-dioxonan-7-yl isobutyrate], for which the melting point (as a rule, the temperature, or range, at which the solid turns liquid) lay within 198 to 200 °C. Further, the pest or weed control at 100 ppm in data set [1] (setting [3]) is 50 to 100%. The pest or weed control at 100 ppm in data set [1] (setting [4]) lay in the range of 0 to 50%. Also, the “SEPTTR 3DC Disease Control” value in data set [2] (3 Day Curative) is “D”. The pest or weed control at 100 ppm in data set [2] (setting [5]) was in the range of 50 to 100%.

In turn, `COc1ccnc(C(=O)N[C@H]2COC(=O)[C@H](Cc3ccc(C(F)(F)F)cc3)[C@@H](OC(=O)C(C)C)[C@H](C)OC2=O)c1O` [Compound 6] returned a melting point of 222 to 226 °C. In addition, the “PUCCRT 3DC Disease Control” value in data set [1] (3 Day Curative) is listed as “D”. The pest or weed control at 100 ppm in data set [1] (setting [3]) was 50 to 100%. Moreover, in data set [2] (setting [5]), the pest or weed control at 100 ppm lay within 50 to 100%. The pest or weed control at 100 ppm in data set [2] (setting [6]) fell in the range of 0 to 50%.

With `COc1ccnc(C(=O)N[C@H]2COC(=O)[C@H](CCOC(=O)c3ccccc3)[C@@H](OC(=O)C(C)C)[C@H](C)OC2=O)c1OCOC(=O)C(C)C` [Compound 19, 2-((3S,7R,8R,9S)-8-(isobutyryloxy)-3-(3-(isobutyryloxymethoxy)-4-methoxypicolinamido)-9-methyl-2,6-dioxo-1,5-dioxonan-7-yl)ethyl benzoate], the melting point lay in the range of 48 to 50 °C. Also, the pest or weed control at 100 ppm in data set [1] (setting [3]) lay in the range of 50 to 100%. Besides, in data set [1] (setting [4]), the pest or weed control at 100 ppm was in the range of 50 to 100%. Besides, in data set [2] (setting [5]), the pest or weed control at 100 ppm lay in the range of 50 to 100%. In addition, in data set [2] (setting [6]), the pest or weed control at 100 ppm was in the range of 0 to 50%.

As for `COc1ccnc(C(=O)N[C@H]2COC(=O)[C@H](Cc3cccc4ccccc34)[C@@H](OC(=O)C(C)C)[C@H](C)OC2=O)c1O` [Compound 15], the melting point lay within 192 to 197 °C. The pest or weed control at 100 ppm in data set [1] (setting [3]) fell in the range of 50 to 100%. In data set [1] (setting [4]), the pest or weed control at 100 ppm was in the range of 0 to 50%. Besides, in data set [2] (setting [5]), the pest or weed control at 100 ppm fell in the range of 50 to 100%. In addition, in data set [2] (setting [6]), the pest or weed control at 100 ppm lay within 0 to 50%.

With `COc1ccnc(C(=O)N[C@H]2COC(=O)[C@H](Cc3ccc(-c4ccccc4)cc3)[C@@H](OC(=O)C(C)C)[C@H](C)OC2=O)c1O` [Compound 12], the melting point fell in the range of 214 to 216 °C. For the same compound, the pest or weed control at 100 ppm in data set [1] (setting [3]) fell in the range of 50 to 100%. Further, the pest or weed control at 100 ppm in data set [1] (setting [4]) lay in the range of 0 to 50%. The pest or weed control at 100 ppm in data set [2] (setting [5]) was 50 to 100%. Moreover, the pest or weed control at 100 ppm in data set [2] (setting [6]) lay in the range of 0 to 50%.

Regarding `COc1ccnc(C(=O)N[C@H]2COC(=O)[C@H](CC3CCCCC3)[C@@H](OC(=O)C(C)C)[C@H](C)OC2=O)c1OC(C)=O` [Compound 66, (3S,6S,7R,8R)-3-(3-acetoxy-4-methoxypicolinamido)-8-(cyclohexylmethyl)-6-methyl-4,9-dioxo-1,5-dioxonan-7-yl isobutyrate], the melting point is 164 to 170 °C. Moreover, the pest or weed control at 100 ppm in data set [1] (setting [3]) was 50 to 100%. Besides, the pest or weed control at 100 ppm in data set [1] (setting [4]) fell in the range of 50 to 100%. The pest or weed control at 100 ppm in data set [2] (setting [5]) was in the range of 50 to 100%. The pest or weed control at 100 ppm in data set [2] (setting [6]) was in the range of 50 to 100%.

`CC[C@H]1C(=O)OC[C@H](NC(=O)c2nccc(OC)c2O)C(=O)O[C@@H](C)[C@@H]1OC(=O)C(C)C` [Compound 53, (3S,6S,7R,8R)-8-ethyl-3-(3-hydroxy-4-methoxypicolinamido)-6-methyl-4,9-dioxo-1,5-dioxonan-7-yl isobutyrate]: the melting point was 193 to 195 °C. Besides, the “PUCCRT 3DC Disease Control” value in data set [1] (3 Day Curative) is on record as “D”. For the same compound, the pest or weed control at 100 ppm in data set [1] (setting [3]) lay within 50 to 100%. The pest or weed control at 100 ppm in data set [2] (setting [5]) lay in the range of 50 to 100%. Moreover, the pest or weed control at 100 ppm in data set [2] (setting [6]) lay in the range of 0 to 50%.

In turn, `COc1ccnc(C(=O)N[C@H]2COC(=O)[C@H](Cc3ccccn3)[C@@H](OC(=O)C(C)C)[C@H](C)OC2=O)c1O` [Compound 3] returned a melting point of 92 to 95 °C. For the same compound, in data set [1] (setting [3]), the pest or weed control at 100 ppm fell in the range of 50 to 100%. In addition, in data set [1] (setting [4]), the pest or weed control at 100 ppm fell in the range of 50 to 100%. The pest or weed control at 100 ppm in data set [2] (setting [5]) lay in the range of 50 to 100%. Also, in data set [2] (setting [6]), the pest or weed control at 100 ppm was in the range of 50 to 100%.

Compound `COc1ccnc(C(=O)N[C@H]2COC(=O)[C@H](CCc3ccccc3)[C@@H](OC(=O)C(C)C)[C@H](C)OC2=O)c1O` [Compound 57, (3S,6S,7R,8R)-3-(3-hydroxy-4-methoxypicolinamido)-6-methyl-4,9-dioxo-8-phenethyl-1,5-dioxonan-7-yl isobutyrate] registered a melting point of 183 to 184 °C. Besides, the pest or weed control at 100 ppm in data set [1] (setting [3]) was in the range of 50 to 100%. Also, the pest or weed control at 100 ppm in data set [1] (setting [4]) is 50 to 100%. For the same compound, the pest or weed control at 100 ppm in data set [2] (setting [5]) lay in the range of 50 to 100%. The pest or weed control at 100 ppm in data set [2] (setting [6]) is 0 to 50%.

On to `COc1ccnc(C(=O)N[C@H]2COC(=O)[C@H](CCOC(=O)c3ccccc3)[C@@H](OC(=O)C(C)C)[C@H](C)OC2=O)c1O` [Compound 35, 2-((3S,7R,8R,9S)-3-(3-hydroxy-4-methoxypicolinamido)-8-(isobutyryloxy)-9-methyl-2,6-dioxo-1,5-dioxonan-7-yl)ethyl benzoate], for which the melting point fell in the range of 172 to 174 °C. Further, the “PUCCRT 3DC Disease Control” value in data set [1] (3 Day Curative) is listed as “D”. Besides, the pest or weed control at 100 ppm in data set [1] (setting [3]) is 50 to 100%. Moreover, the “SEPTTR 3DC Disease Control” value in data set [2] (3 Day Curative) is recorded as “D”. Moreover, the pest or weed control at 100 ppm in data set [2] (setting [5]) lay in the range of 50 to 100%.

In turn, `COC(=O)C[C@H]1C(=O)OC[C@H](NC(=O)c2nccc(OC)c2O)C(=O)O[C@@H](C)[C@@H]1OC(=O)C(C)C` [Compound 50] had a melting point of 138 to 140 °C. Also, the pest or weed control at 100 ppm in data set [1] (setting [3]) is 50 to 100%. The pest or weed control at 100 ppm in data set [1] (setting [4]) is 50 to 100%. In data set [2] (setting [5]), the pest or weed control at 100 ppm is 50 to 100%. Also, in data set [2] (setting [6]), the pest or weed control at 100 ppm fell in the range of 50 to 100%.

The compound `COc1ccnc(C(=O)N[C@H]2COC(=O)[C@H](CCOC(=O)c3ccc(C(F)(F)F)cc3)[C@@H](OC(=O)C(C)C)[C@H](C)OC2=O)c1O` [Compound 42] displayed a melting point of 160 to 162 °C. The “PUCCRT 3DC Disease Control” value in data set [1] (3 Day Curative) is on record as “D”. In data set [1] (setting [3]), the pest or weed control at 100 ppm is 50 to 100%. For the same compound, the pest or weed control at 100 ppm in data set [2] (setting [5]) lay within 0 to 50%. In data set [2] (setting [6]), the pest or weed control at 100 ppm was 0 to 50%.
